Experimental data from patent publication US20230322723A1, “COMPOUNDS FOR SUPPRESSING EGFR MUTANT CANCER AND PHARMACEUTICAL USE THEREOF” (J2H BIOTECH INC., priority 2020, published 2023).

Experiments:
EGFR^L858R+T790M+C797S = biological target: T1, EGFR^L858R+T790M+C797S (Homo sapiens, UniProt P00533, C797S/L858R/T790M); assay: EGFR protein degradation test (Western blot) in Ba/F3 cells expressing mutant EGFR L858R+T790M+C797S (LTC); assay type: cell-based; conditions: compounds at 0.1 μM and 1 μM, 24 hours, Western blot with EGFR antibody
T1 construct: expressed in transfected cells; host or cells: Ba/F3
T1 sequence (P00533 25-1210 T790M/C797S/L858R): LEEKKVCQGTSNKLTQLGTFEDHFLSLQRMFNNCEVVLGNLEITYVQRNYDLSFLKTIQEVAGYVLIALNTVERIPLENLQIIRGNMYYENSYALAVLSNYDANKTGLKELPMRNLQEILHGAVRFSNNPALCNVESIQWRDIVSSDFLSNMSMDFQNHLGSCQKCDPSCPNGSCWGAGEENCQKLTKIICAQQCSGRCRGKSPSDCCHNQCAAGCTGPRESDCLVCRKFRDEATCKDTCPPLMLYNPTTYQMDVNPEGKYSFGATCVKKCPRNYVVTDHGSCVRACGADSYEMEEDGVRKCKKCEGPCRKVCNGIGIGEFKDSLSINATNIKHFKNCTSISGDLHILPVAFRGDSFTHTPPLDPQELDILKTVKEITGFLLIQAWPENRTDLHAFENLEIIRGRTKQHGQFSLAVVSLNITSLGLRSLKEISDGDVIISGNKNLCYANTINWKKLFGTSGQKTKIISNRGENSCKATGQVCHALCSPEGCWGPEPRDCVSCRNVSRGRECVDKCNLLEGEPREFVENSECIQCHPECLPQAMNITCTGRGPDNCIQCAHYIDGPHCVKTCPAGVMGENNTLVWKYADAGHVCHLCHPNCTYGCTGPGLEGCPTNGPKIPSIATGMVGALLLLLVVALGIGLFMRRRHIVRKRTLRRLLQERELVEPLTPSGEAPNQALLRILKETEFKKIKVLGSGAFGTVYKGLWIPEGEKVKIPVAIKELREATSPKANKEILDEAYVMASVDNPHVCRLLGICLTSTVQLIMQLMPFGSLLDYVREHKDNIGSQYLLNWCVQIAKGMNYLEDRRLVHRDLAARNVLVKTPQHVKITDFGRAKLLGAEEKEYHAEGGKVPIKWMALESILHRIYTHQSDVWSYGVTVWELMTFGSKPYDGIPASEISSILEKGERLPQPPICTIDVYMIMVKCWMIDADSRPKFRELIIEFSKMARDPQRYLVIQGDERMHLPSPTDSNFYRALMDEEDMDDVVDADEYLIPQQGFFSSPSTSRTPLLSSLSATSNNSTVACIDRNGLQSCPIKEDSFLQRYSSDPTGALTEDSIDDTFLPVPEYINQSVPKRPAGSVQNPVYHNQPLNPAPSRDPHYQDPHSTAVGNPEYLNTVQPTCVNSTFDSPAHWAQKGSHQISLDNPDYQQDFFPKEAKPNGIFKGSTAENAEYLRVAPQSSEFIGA
Outline: (§1)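 EGFR protein level was measured by Western blot on 30 μg lysate, bands quantified by imager. Lysates came from Ba/F3 lines carrying normal, LTC or DTC mutant EGFR, exposed 24 h to compound at 0.1 and 1 μM.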

EGFR^del19+T790M+C797S = assay: EGFR protein degradation test (Western blot) in Ba/F3 cells expressing mutant EGFR del19+T790M+C797S (DTC); assay type: cell-based; conditions: compounds at 0.1 μM and 1 μM, 24 hours, Western blot with EGFR antibody
Outline: as §1

[1] = Pharmacokinetic evaluation after single oral administration to ICR mice; assay type: in vivo; conditions: for half-life / AUC(0-t): mouse, ICR mice, single oral dose 5 mg/kg, plasma; for AUC(0-t): read-out: AUC0-24
Protocol: Pharmacokinetic tests for the compounds of the present invention were conducted as below. After a single oral administration of the compound of the present invention to ICR mice, the concentration of the compound over time was followed up and analyzed.
The compound of the present invention was suspended in 10% DMSO/90% (30% HPbCD aqueous solution) and orally administered to mice at a dose of 5 mg/kg. Blood was collected at a fixed time and plasma was separated. Drug analysis was performed using HPLC (XBridge column C18, Waters, mobile phase 0.1% formic acid:acetonitrile (30:70, %/%)) and MS/MS (ESI positive, MRM). Mouse blood plasma and each commercially available standard solution were mixed at a ratio of 9:1 to prepare and calibrate at concentrations of […] 5,000 ng/mL. In addition, the preparation of QC samples was prepared by mixing the mouse blood plasma and the standard solution for QC at a ratio of 9:1, and prepared to be concentrations of 100, 750 and 2,500 ng/mL. 100 μL of the plasma sample was transferred to a centrifugation tube, and 10 μL of the internal standard solution and 300 μL of methanol were added, followed by mixing for about 30 seconds for pretreatment. The tube was centrifuged at 3,000×g (4° C.) for about 5 minutes, and the supernatant was taken and transferred to an LC vial and injected into the instrument. Then, the concentration of the compound in mouse plasma was quantified by applying a previously validated assay. For pharmacokinetic parameters, the program WinNonlin 5.2 (Pharsight, USA) was used. AUC0-t, AUC0-∞, Cmax, Tmax, and t1/2 were calculated by Noncompartment modeling (best fit). The pharmacokinetic parameter results were expressed as the mean (Mean) and standard deviation (SD), and were statistically processed using the SPSS program (Statistical Package for the Social Sciences, 10.0K, USA).

[2] = 69, 70, 75, 78, 82 vs compounds 53 and 65
[3] = 74, 76, 77, 80, 81 vs 45, 71, 51, 65, 53

| Structure (SMILES) | LTC (EGFR^L858R+T790M+C797S) protein degradation (EGFR^L858R+T790M+C797S) | DTC (EGFR^del19+T790M+C797S) protein degradation (EGFR^del19+T790M+C797S) | AUC compared to the corresponding compounds [1, 2] | half-life [1] | AUC(0-t) [1] | AUC compared to the corresponding compounds [1, 3] |
| --- | --- | --- | --- | --- | --- | --- |
| COc1cc(N2CCN(CC3CCN(C(=O)[C@H](C)Nc4cccc5c4C(=O)N(C4CCC(=O)NC4=O)C5=O)CC3)CC2)ccc1Nc1ncc(Cl)c(Nc2ccccc2N(C)S(C)(=O)=O)n1 (stereo partly drawn) [Compound 70, N-(2-((5-chloro-2-((4-(4-((1-((2-(2,6-dioxopiperidin-3-yl)-1,3-dioxoisoindolin-4-yl)-L-alanyl)piperidin-4-yl)methyl)piperazin-1-yl)-2-methoxyphenyl)amino)pyrimidin-4-yl)amino)phenyl)-N-methylmethanesulfonamide] | ++ (Protein degradation > 80%) | ++ (Protein degradation > 80%) | significantly improved AUC | 3.07 h | 598 ng·h/mL |  |
| COc1cc(N2CCN(CC3CCN(C(=O)COc4cccc5c4C(=O)N(C4CCC(=O)NC4=O)C5=O)CC3)CC2)c(C)cc1Nc1ncc(Cl)c(Nc2ccccc2N(C)S(C)(=O)=O)n1 (centres unmarked) [Compound 81, N-(2-((5-chloro-2-((4-(4-((1-(2-((2-(2,6-dioxopiperidin-3-yl)-1,3-dioxoisoindolin-4-yl)oxy)acetyl)piperidin-4-yl)methyl)piperazin-1-yl)-2-methoxy-5-methylphenyl)amino)pyrimidin-4-yl)amino)phenyl)-N-methylmethanesulfonamide] | ++ (Protein degradation > 80%) | ++ (Protein degradation > 80%) |  | 4.73 h | 502 ng·h/mL | significantly improved AUC |
| COc1cc(N2CCN(CC3CCN(C(=O)CNc4cccc5c4C(=O)N(C4CCC(=O)NC4=O)C5=O)CC3)CC2)ccc1Nc1ncc(Cl)c(Nc2ccccc2N(C)S(C)(=O)=O)n1 (centres unmarked) [Compound 65, N-(2-((5-chloro-2-((4-(4-((1-((2-(2,6-dioxopiperidin-3-yl)-1,3-dioxoisoindolin-4-yl)glycyl)piperidin-4-yl)methyl)piperazin-1-yl)-2-methoxyphenyl)amino)pyrimidin-4-yl)amino)phenyl)-N-methylmethanesulfonamide] | ++ (Protein degradation > 80%) | ++ (Protein degradation > 80%) |  | 4.01 h | 607 ng·h/mL |  |
| COc1cc(N2CCC(CN3CCN(c4ccc5c(c4)C(=O)N(C4CCC(=O)NC4=O)C5=O)CC3)CC2)c(C)cc1Nc1ncc(Cl)c(Nc2ccccc2N(C)S(C)(=O)=O)n1 (centres unmarked) [Compound 79, N-(2-((5-chloro-2-((4-(4-((4-(2-(2,6-dioxopiperidin-3-yl)-1,3-dioxoisoindolin-5-yl)piperazin-1-yl)methyl)piperidin-1-yl)-2-methoxy-5-methylphenyl)amino)pyrimidin-4-yl)amino)phenyl)-N-methylmethanesulfonamide] | + (Protein degradation 20~80%) | − (Protein degradation < 20%) |  | 3.47 h | 1130 ng·h/mL |  |
| COc1cc(N2CCC(N3CCN(CCNc4cccc5c4C(=O)N(C4CCC(=O)NC4=O)C5=O)CC3)CC2)c(C)cc1Nc1ncc(Cl)c(Nc2ccccc2N(C)S(C)(=O)=O)n1 (centres unmarked) [Compound 74, N-(2-((5-chloro-2-((4-(4-(4-(2-((2-(2,6-dioxopiperidin-3-yl)-1,3-dioxoisoindolin-4-yl)amino)ethyl)piperazin-1-yl)piperidin-1-yl)-2-methoxy-5-methylphenyl)amino)pyrimidin-4-yl)amino)phenyl)-N-methylmethanesulfonamide] | ++ (Protein degradation > 80%) | − (Protein degradation < 20%) |  | 4.44 h | 5520 ng·h/mL | significantly improved AUC |
| COc1cc(N2CCN(CC3CCN(C(=O)COc4cccc5c4C(=O)N(C4CCC(=O)NC4=O)C5=O)CC3)CC2)ccc1Nc1ncc(Cl)c(Nc2ccccc2N(C)S(C)(=O)=O)n1 (centres unmarked) [Compound 53, N-(2-((5-chloro-2-((4-(4-((1-(2-((2-(2,6-dioxopiperidin-3-yl)-1,3-dioxoisoindolin-4-yl)oxy)acetyl)piperidin-4-yl)methyl)piperazin-1-yl)-2-methoxyphenyl)amino)pyrimidin-4-yl)amino)phenyl)-N-methylmethanesulfonamide] | ++ (Protein degradation > 80%) | ++ (Protein degradation > 80%) |  | 3.65 h | 44 ng·h/mL |  |
| COc1cc(N2CCC(CN3CCN(CC(=O)N[C@H](C(=O)N4C[C@H](O)CC4C(=O)NCc4ccc(-c5scnc5C)cc4)C(C)(C)C)CC3)CC2)ccc1Nc1ncc(Cl)c(Nc2ccccc2N(C)S(C)(=O)=O)n1 (stereo in doubt) [Compound 27, (2R,4R)-1-((S)-2-(2-(4-((1-(4-((5-chloro-4-((2-(N-methylmethylsulfonamido)phenyl)amino)pyrimidin-2-yl)amino)-3-methoxyphenyl)piperidin-4-yl)methyl)piperazin-1-yl)acetamido)-3,3-dimethylbutanoyl)-4-hydroxy-N-(4-(4-methylthiazol-5-yl)benzyl)pyrrolidin-2-carboxamide] | ++ (Protein degradation > 80%) | ++ (Protein degradation > 80%) |  | 8.89 h | 68 ng·h/mL |  |
| COc1cc(N2CCC(N3CCN(CC(=O)Nc4ccc5c(c4)CN(C4CCC(=O)NC4=O)C5=O)CC3)CC2)ccc1Nc1ncc(Cl)c(Nc2ccccc2N(C)S(C)(=O)=O)n1 (centres unmarked) [Compound 47, 2-(4-(1-(4-((5-chloro-4-((2-(N-methylmethylsulfonamido)phenyl)amino)pyrimidin-2-yl)amino)-3-methoxyphenyl)piperidin-4-yl)piperazin-1-yl)-N-(2-(2,6-dioxopiperidin-3-yl)-1-oxoisoindolin-5-yl)acetamide] | ++ (Protein degradation > 80%) | ++ (Protein degradation > 80%) |  | 4.13 h | 134 ng·h/mL |  |
| COc1cc(N2CCC(CN3CCN(C(=O)[C@H](C)Nc4cccc5c4C(=O)N(C4CCC(=O)NC4=O)C5=O)CC3)CC2)c(C)cc1Nc1ncc(Cl)c(Nc2ccccc2N(C)S(C)(=O)=O)n1 (stereo partly drawn) [Compound 78, N-(2-((5-chloro-2-((4-(4-((4-((2-(2,6-dioxopiperidin-3-yl)-1,3-dioxoisoindolin-4-yl)-L-alanyl)piperazin-1-yl)methyl)piperidin-1-yl)-2-methoxy-5-methylphenyl)amino)pyrimidin-4-yl)amino)phenyl)-N-methylmethanesulfonamide] | ++ (Protein degradation > 80%) | ++ (Protein degradation > 80%) | significantly improved AUC | 3.75 h | 5740 ng·h/mL |  |
| CN(c1ccccc1Nc1nc(Nc2ccc(N3CCN(CC4CCN(C(=O)COc5cccc6c5C(=O)N(C5CCC(=O)NC5=O)C6=O)CC4)CC3)c(F)c2)ncc1Cl)S(C)(=O)=O (centres unmarked) [Compound 43, N-(2-((5-chloro-2-((4-(4-((1-(2-((2-(2,6-dioxopiperidin-3-yl)-1,3-dioxoisoindolin-4-yl)oxy)acetyl)piperidin-4-yl)methyl)piperazin-1-yl)-3-fluorophenyl)amino)pyrimidin-4-yl)amino)phenyl)-N-methylmethanesulfonamide] | ++ (Protein degradation > 80%) | ++ (Protein degradation > 80%) |  | 5.07 h | 346 ng·h/mL |  |
